Measured values: patent US8017612B2, “Piperazine compound and use thereof as a HCV polymerase inhibitor” (priority 2006, dated 2011)

Assays:
[1] = molecular target: T1, HCV polymerase (NS5B) type 1b (Hepatitis C virus genotype 1b, UniProt P26663); experiment: Assay of enzyme (HCV polymerase) inhibitory activity, type 1b enzyme; type: biochemical, HCV BK strain (type 1b); conditions: HCV polymerase inhibitory activity (IC50), 1b, type 1b enzyme 0.5 μg/ml, 25° C., 60 min
T1 construct: a region encoding NS5B (J Virol 1991 March, 65(3), 1105-13, 544 amino acids after deletion of 47 amino acids on the C-terminal); 6xHis (C); made in house; host or cells: Escherichia coli
Method in brief: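 NS5B from HCV BK strain (type 1b), C-terminal 47 aa deleted, C-terminal His6-tagged, E. coli-expressed, 0.5 μg/ml, with ~450 nt substrate RNA carrying the 3′ UTR (polyU, 3′X) at 5 μg/ml. Incubation 60 min at 25 °C with 50 μM ATP/GTP/CTP, 2 μM UTP plus [3H]UTP, pH 7.5 Tris.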

[2] = molecular target: T2, HCV polymerase (NS5B) type 1a (Hepatitis C virus genotype 1a, UniProt P26664); experiment: Assay of enzyme (HCV polymerase) inhibitory activity, type 1a enzyme; type: biochemical, HCV type 1a (cloned from the blood of patients); conditions: HCV polymerase inhibitory activity (IC50), 1a, type 1a enzyme 1.5 μg/ml, 25° C., 60 min
T2 construct: made in house; host or cells: Escherichia coli (by the 'similar method' of the 1b enzyme)
Method in brief: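 Patient-derived type 1a NS5B (C-terminal 47-aa deletion, His-tagged, E. coli-expressed) at 1.5 μg/ml was reacted with 5 μg/ml 3′UTR-containing substrate RNA, 50 μM ATP/GTP/CTP, 2 μM UTP plus [3H]UTP, pH 7.5, 25° C for 60 min. TCA-precipitated RNA radioactivity was counted; IC50 from ± compound.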

CCCc1ccc(CNC(=O)[C@H]2CN(c3nc(C)ns3)CCN2S(=O)(=O)c2ccc(OC(F)(F)F)cc2)cc1 [Example 563, (R)-4-(3-methyl-[1,2,4]thiadiazol-5-yl)-1-(4-trifluoromethoxy-benzenesulfonyl)-piperazine-2-carboxylic acid 4-propyl-benzylamide]
IC50 [1]: < 100 nM | IC50 [2]: < 100 nM

CCc1ccc(S(=O)(=O)N2CCN(c3cnc(C(=O)O)cn3)C[C@@H]2C(=O)NCc2ccc(C(F)(F)CC)cc2)cc1 [Example 564, (R)-3-[4-(1,1-difluoro-propyl)-benzylcarbamoyl]-4-(4-ethyl-benzenesulfonyl)-3,4,5,6-tetrahydro-2H-[1,2′]bipyrazinyl-5′-carboxylic acid]
IC50 [1]: < 100 nM | IC50 [2]: < 100 nM

CCC(F)(F)c1ccc(CNC(=O)[C@H]2CN(C(=O)Nc3nc[nH]n3)CCN2S(=O)(=O)c2ccc(OC(F)(F)F)cc2)cc1 [Example 565, (R)-4-(4-trifluoromethoxy-benzenesulfonyl)-piperazine-1,3-dicarboxylic acid 3-[4-(1,1-difluoro-propyl)-benzylamide] 1-[(1H-[1,2,4]triazol-3-yl)-amide]]
IC50 [1]: < 100 nM | IC50 [2]: 100 to 1000 nM

CCC(F)(F)c1ccc(CNC(=O)[C@H]2CN(C(=O)Nc3nn[nH]n3)CCN2S(=O)(=O)c2ccc(OC(F)(F)F)cc2)cc1 [Example 566, (R)-4-(4-trifluoromethoxy-benzenesulfonyl)-piperazine-1,3-dicarboxylic acid 3-[4-(1,1-difluoro-propyl)-benzylamide] 1-[(2H-tetrazol-5-yl)-amide]]
IC50 [1]: < 100 nM | IC50 [2]: 100 to 1000 nM

CCC(F)(F)c1ccc(CNC(=O)[C@H]2CN(C(=O)Nc3csc(C)n3)CCN2S(=O)(=O)c2ccc(OC(F)(F)F)cc2)cc1 [Example 567, (R)-4-(4-trifluoromethoxy-benzenesulfonyl)-piperazine-1,3-dicarboxylic acid 3-[4-(1,1-difluoro-propyl)-benzylamide] 1-[(2-methyl-thiazol-4-yl)-amide]]
IC50 [1]: < 100 nM | IC50 [2]: 100 to 1000 nM

CCC(F)(F)c1ccc(CNC(=O)[C@H]2CN(C(=O)n3nc(C)nc3N)CCN2S(=O)(=O)c2ccc(OC(F)(F)F)cc2)cc1 [Example 568, (R)-4-(5-amino-3-methyl-[1,2,4]triazole-1-carbonyl)-1-(4-trifluoromethoxy-benzenesulfonyl)-piperazine-2-carboxylic acid 4-(1,1-difluoro-propyl)-benzylamide]
IC50 [1]: > 1000 nM | IC50 [2]: > 1000 nM

CCC(F)(F)c1ccc(CNC(=O)[C@H]2CN(C(=O)Nc3ccn(C)n3)CCN2S(=O)(=O)c2ccc(OC(F)(F)F)cc2)cc1 [Example 569, (R)-4-(4-trifluoromethoxy-benzenesulfonyl)-piperazine-1,3-dicarboxylic acid 3-[4-(1,1-difluoro-propyl)-benzylamide] 1-[(1-methyl-1H-pyrazol-3-yl)-amide]]
IC50 [1]: < 100 nM | IC50 [2]: 100 to 1000 nM

CC(C)(C)c1ccc(CNC(=O)[C@H]2CN(c3ncc(CO)s3)CCN2S(=O)(=O)c2ccc(OC(F)(F)F)cc2)cc1 [Example 570, (R)-4-(5-hydroxymethyl-thiazol-2-yl)-1-(4-trifluoromethoxy-benzenesulfonyl)-piperazine-2-carboxylic acid 4-tert-butyl-benzylamide]
IC50 [1]: < 100 nM | IC50 [2]: < 100 nM

CCCc1ccc(CNC(=O)[C@H]2CN(c3cc(Cl)ncn3)CCN2S(=O)(=O)c2ccc(OC(F)(F)F)cc2)cc1 [Example 571, (R)-4-(6-chloro-pyrimidin-4-yl)-1-(4-trifluoromethoxy-benzenesulfonyl)-piperazine-2-carboxylic acid 4-propyl-benzylamide]
IC50 [1]: < 100 nM | IC50 [2]: < 100 nM

CCCc1ccc(CNC(=O)[C@H]2CN(c3ccncn3)CCN2S(=O)(=O)c2ccc(OC(F)(F)F)cc2)cc1 [Example 572, (R)-4-pyrimidin-4-yl-1-(4-trifluoromethoxy-benzenesulfonyl)-piperazine-2-carboxylic acid 4-propyl-benzylamide]
IC50 [1]: < 100 nM | IC50 [2]: < 100 nM
